Laboratory results as given in US20070054886A1, “Ras antagonists for treating neurodegenerative disorders” (RAMOT AT TEL AVIV UNIVERSITY, LTD., priority 2003, published 2007).
Where “and” joins values, the source holds several entries; their conditions need not be identical. Identical values can stand only once.

What was measured:
[1] = test system: mice subjected to closed head injury (CHI); test: Lesion volume after CHI in mice; format: in vivo, mouse; conditions: day 7 after CHI
Method: (§1) Seven days after CHI, vehicle-treated (n=5) and FTS-treated (n=4) mice were decapitated and their brains were removed (within 1 minute), frozen in powdered dry ice, and kept at −70° C. until used. Consecutive 20-μ cryostat sections of the whole forebrain were cut in the coronal plane, and one in every ten sections (i.e. at intervals of 200μ) was thaw-mounted onto coated microscope glass slides.
(§2) The films were scanned and digitized using PhotoShop and a large bed Umax scanner, and saved in tiff format for accessibility to NIH image software. Using NIH Image routines, the standard curve was measured and used to calibrate regional brain measurements. Morphometry routines were used to measure the lesion area on each section where it was visible. The volume was calculated by multiplying the summed lesion areas by the distance between sections (0.2 mm).

NMDA receptors (NMDAR) = test: NMDAR quantitative autoradiography ([3H]MK-801 binding) in brain sections of CHI mice; format: in vivo, mouse; conditions: seven days after CHI, FTS 5 mg/kg 1 hr after CHI
Method: as §1
NMDAR autoradiography was performed as described (Bowery et al., 1988), with some modifications. […] At the end of incubation, the sections were dipped for 5 seconds in ice-cold buffer, washed for 90 minutes in cold fresh buffer, and then dipped in ice-cold distilled water. The dried tissue sections were exposed to tritium-sensitive film accompanied by commercial calibrated tritium standard scales (Amersham). After exposure for 36 days, the films were developed in Kodak D-19, fixed, and dried. The sections were then stained with cresyl violet for anatomical region placement according to a mouse brain atlas (Paxinos and Franklin, 1997) and for identification of lesions.
as §2

[2] = test system: rats subjected to closed head injury (CHI); test: Neuroprotection, rat CHI model (NSS); format: in vivo
Method: Sabra (strain of the Hebrew University) rats (200-220 gr) were used. A weight (200 g) was dropped on the cone fixed on the exposed skull at the site (frontal left cortex) designated for injury (from a height of 20 cm), resulting in a focal injury. A maximal Neurological Severity Score (NSS) of 17 indicates severe neurological dysfunction, with failure of all tasks, whereas a score of zero is achieved by healthy uninjured animals. The NSS at 1 h after trauma reflects the initial severity of injury and is inversely correlated with neurological outcome. […] To assess the effect of FTS on neurological recovery, rats were randomly assigned to either vehicle or FTS treatment, given immediately after the initial NSS evaluation (at 1 hr after CHI). These assessments were performed by an observer blinded to the kind of treatment the animals have received. The extent of recovery (ΔNSS) was calculated as the difference between NSS at 1 hr and that at any later time point: ΔNSS (at time t)=NSS (1 h)−NSS (t).
Thus, the greater ΔNSS reflects greater recovery, and this parameter serves as a tool for evaluation of drug effects.

Ras-GTP = test system: Ras-GTP
Source text: The study was approved by the Institutional Animal Care Committee of Hadassah Medical Center and the Hebrew University. Sixty male C57bl mice weighing 25 to 35 g were used. CHI was induced under ether anesthesia, as previously described (Chen et al., 1996) and modified (Yatsiv et al., 2002). Briefly, after induction of ether anesthesia the skull was exposed by a midline longitudinal incision. A tipped Teflon cone was placed in the mid-coronal plane above the left anterior frontal area, 1 mm lateral to the midline. A weight (74 g) was dropped onto the cone (from a height of 15 cm), resulting in a focal injury. After trauma, animals received supporting oxygenation with 100% O2 for no longer than 2 min and were then returned to their cages. Sham-injured mice were anesthetized and their skin was incised, but they were not subjected to CHI.
In the first experiment mice were sacrificed 10, 30, or 120 min after sham-injury or CHI to assess levels of Ras=GTP and phospho=ERK. In the second set of experiments, the animals received FTS (5 mg/kg i.p.) or vehicle, 1 hr after CHI and sham-injured mice received the vehicle (n=4 per group). The mice were sacrificed 2 or 24 hrs after CHI, their brains were removed, and cortical tissue samples adjacent or contra-lateral to the site of injury were homogenized in homogenization buffer containing protease inhibitors and 0.5% Triton X100 as described (Haklai et al., 1998). Debris was removed by centrifugation and protein in the extract was determined with the aid of the Bio-Rad protein assay (Bio-Rad Laboratories, GmbH). Total Ras protein was determined by Western immunoblotting of 30 μg of protein with 1:2500 pan-Ras Ab (Oncogene Research Products, followed by 1:7500 peroxidase goat anti-mouse IgG (Haklai et al., 1998). For determination of GTP-bound Ras in protein samples (1 mg), Ras-GTP was pulled down by glutathione-S-transferase fused to the Ras-binding domain of Raf (GST-RBD) which binds Ras-GTP only. The GST-RBD-Ras-GTP was pulled down with glutathione-agarose beads, and Ras was then determined by immunoblotting with pan-Ras Ab as described above, followed by enhanced chemiluminescence (ECL; Amersham Pharmacia Biotech, Piscataway, N.J., U.S.A) (Paz et al., 2000). The bands were quantified by densitometry with Image Master VDS-CL (Amersham Biotech) using TINA 2.0 software (Ray Tests).

[3] = left (ipsilateral) hemisphere, mean ± SD, 4 mice
[4] = right (contra-lateral) hemisphere, mean ± SD, 4 mice
[5] = FTS 5 mg/kg bw ip 1 h after CHI, mean ± SD of 7 rats
[6] = 2 hrs after CHI, drug i.p. 1 hr after CHI, FTS 5 mg/kg, MK-801 0.5 mg/kg or 1 mg/kg, mean±SD

Structure (SMILES): CC(C)=CCC/C(C)=C/CC/C(C)=C/CSc1ccccc1C(=O)O [FTS, farnesyl-thiosalicylic acid]
- mean lesion volume ([1]; FTS 5 mg/kg 1 hr after CHI, mean±SD of 4 animals, control 155±41 μL, p<0.07): 87 ± 53 µL
- reduction in lesion volume (lesion size) ([1]; FTS 5 mg/kg vs vehicle, trend, p<0.07): 50%
- lesion volume, range ([1]; FTS 5 mg/kg, 4 animals): 37 to 161 µL
- effect of trauma on the binding of [3H]-MK-801 to the NMDA receptors (NMDA receptors (NMDAR); ANOVA, no significant difference between sides (P=0.5)): completely reversed
- NMDA-receptor density, dorsal striatum, left (NMDA receptors (NMDAR); [3]): 4.32 ± 0.32 nCi of [^3H]-MK-801 specifically bound/mg
- NMDA-receptor density, frontal motor cortex, left (NMDA receptors (NMDAR); [3]): 6.32 ± 2.12 nCi of [^3H]-MK-801 specifically bound/mg
- NMDA-receptor density, hippocampus CA1, left (NMDA receptors (NMDAR); [3]): 9.85 ± 1.34 nCi of [^3H]-MK-801 specifically bound/mg
- NMDA-receptor density, hippocampus CA3, left (NMDA receptors (NMDAR); [3]): 7.69 ± 0.96 nCi of [^3H]-MK-801 specifically bound/mg
- NMDA-receptor density, parietal cortex, left (NMDA receptors (NMDAR); [3]): 5.69 ± 1.18 nCi of [^3H]-MK-801 specifically bound/mg
- NMDA-receptor density, perirhinal cortex, left (NMDA receptors (NMDAR); [3]): 5.92 ± 0.72 nCi of [^3H]-MK-801 specifically bound/mg
- NMDA-receptor density, piriform cortex, left (NMDA receptors (NMDAR); [3]): 5.65 ± 1.54 nCi of [^3H]-MK-801 specifically bound/mg
- NMDA-receptor density, ventral striatum, left (NMDA receptors (NMDAR); [3]): 4.06 ± 1.82 nCi of [^3H]-MK-801 specifically bound/mg
- NMDA-receptor density, dorsal striatum, right (NMDA receptors (NMDAR); [4]): 5.45 ± 1.72 nCi of [^3H]-MK-801 specifically bound/mg
- NMDA-receptor density, frontal motor cortex, right (NMDA receptors (NMDAR); [4]): 6.63 ± 1.7 nCi of [^3H]-MK-801 specifically bound/mg
- NMDA-receptor density, hippocampus CA1, right (NMDA receptors (NMDAR); [4]): 9.25 ± 0.32 nCi of [^3H]-MK-801 specifically bound/mg
- NMDA-receptor density, hippocampus CA3, right (NMDA receptors (NMDAR); [4]): 7.23 ± 0.42 nCi of [^3H]-MK-801 specifically bound/mg
- NMDA-receptor density, parietal cortex, right (NMDA receptors (NMDAR); [4]): 7.04 ± 1.46 nCi of [^3H]-MK-801 specifically bound/mg
- NMDA-receptor density, perirhinal cortex, right (NMDA receptors (NMDAR); [4]): 5.97 ± 0.88 nCi of [^3H]-MK-801 specifically bound/mg
- NMDA-receptor density, piriform cortex, right (NMDA receptors (NMDAR); [4]): 5.57 ± 0.84 nCi of [^3H]-MK-801 specifically bound/mg
- NMDA-receptor density, ventral striatum, right (NMDA receptors (NMDAR); [4]): 5.21 ± 0.54 nCi of [^3H]-MK-801 specifically bound/mg
- Neurological Severity Score (NSS) 1 h ([2]; 1 h after CHI, before treatment (baseline), maximal score 17, mean ± SD of 7 rats): 9.71 ± 1.97
- ΔNSS = NSS (1 h) − NSS (time), 24 h [2, 5]: 1.86 ± 1.34
- ΔNSS = NSS (1 h) − NSS (time), 3 d [2, 5]: 3.00 ± 1.29
- ΔNSS = NSS (1 h) − NSS (time), 7 d ([2]; FTS 5 mg/kg bw ip 1 h after CHI, mean ± SD of 7 rats, p = 0.019 vs control): 5.14 ± 1.07
- inhibition of the CHI-induced increase in Ras-GTP, left (contused) hemisphere (Ras-GTP; [6]): 81.7±10.0% and 75.2±6.8% and 82% and 82±10%
- inhibition of the CHI-induced increase in Ras-GTP, right (contra-lateral) hemisphere (Ras-GTP; [6]): 70.4±12.0% and 67.2±7.1% and 70±12%
- inhibition of Ras-GTP, range over both hemispheres (Ras-GTP; CHI mice, 2 hrs after CHI): 70-82%
- effect on the total amount of Ras in the brain (Ras-GTP; FTS 5 mg/kg i.p. 1 hr after CHI): no effect
- effect on Ras-GTP levels 24 hrs after CHI (Ras-GTP; FTS 5 mg/kg i.p. 1 hr after CHI, assessed 24 hrs after CHI): almost no effect
